From patent US10233184B2, “7-substituted sulfonimidoylpurinone compounds and derivatives for the treatment and prophylaxis of virus infection” (Hoffmann-La Roche Inc., priority 2016, dated 2019)
Converted amounts (≈) assume the structure as drawn. One block for each molecule: values may come before it.

Key:
LYSA solubility study = assay type: physicochemical; settings: for solubility thermodynamic: phosphate buffer, pH 6.5, aqueous buffer, thermodynamic from solid, 0.05M phosphate buffer pH 6.5, read-out: LYSA of Prodrugs
Experimental: LYSA study is used to determine the aqueous solubility of tested compounds. Samples were prepared in duplicate from 10 mM DMSO stock solution. After evaporation of DMSO with a centrifugal vacuum evaporator, the compounds were dissolved in 0.05M phosphate buffer (pH 6.5), stirred for one hour and shaken for two hours. After one night, the solutions were filtered using a microtiter filter plate. Then the filtrate and its 1/10 dilution were analyzed by HPLC-UV. […] The results were in μg/mL. In case the percentage of sample measured in solution after evaporation divided by the calculated maximum of sample amount was bigger than 80%, the solubility was reported as bigger than this value.

[1] = Single dose PK study in male Wister-Han rats; assay type: in vivo; settings: male, Wister-Han, rat, plasma, po, 5 mg/kg, 5 mg/kg oral dosing of active form
Experimental: The single dose PK in Male Wister-Han Rats was performed to assess pharmacokinetic properties of tested compounds. Two groups of animals were dosed via Gavage (POE) of the respective compound. […] Blood samples were placed into tubes containing EDTA-K2 anticoagulant and centrifuged at 5000 rpm for 6 min at 4° C. to separate plasma from the samples. After centrifugation, the resulting plasma was transferred to clean tubes for bioanalysis of both prodrug and active form on LC/MS/MS. In the groups that prodrug were dosed, the concentration of prodrugs in the plasma samples was under the detection limit. The “tested compound” in Table 8 was used as the internal standard for testing the metabolite (active form) of “dose compound” in vivo. The pharmacokinetic parameters were calculated using non-compartmental module of WinNonlin® Professional 6.2. The peak concentration (Cmax) was recorded directly from experimental observations. The area under the plasma concentration-time curve (AUC0-t) was calculated using the linear trapezoidal rule up to the last detectable concentration. Cmax and AUC0-last are two critical PK parameters related to the in vivo efficacy of the tested compound. Compounds with higher Cmax and AUC0-last will lead to the better in vivo efficacy.

- LYSA of Prodrugs (LYSA solubility study; aqueous solubility, 0.05M phosphate buffer pH 6.5): 209 µg/mL
Structure (SMILES): CCCN(C)C(=O)n1c(=O)n(Cc2ccc(C)cc2)c2nc([S@@](=N)(=O)CCC)nc(N)c21 (stereo in doubt) [Example 36-B, 6-amino-N-methyl-8-oxo-N-propyl-2[S(R)-propylsulfonimidoyl]-9-(p-tolylmethyl)purine-7-carboxamide]

- solubility thermodynamic (LYSA solubility study): 190 µg/mL (≈ 377 µM)
Structure (SMILES): CCCS(=N)(=O)c1nc(N)c2c(n1)n(Cc1ccccc1)c(=O)n2C(=O)N(C)[C@@H](C)C(=O)OCC (stereo partly drawn) [Example 17, Ethyl(2S)-2-[[6-amino-9-benzyl-8-oxo-2-(propylsulfonimidoyl)purine-7-carbonyl]-methyl-amino]propanoate]

- solubility thermodynamic (LYSA solubility study): 172 µg/mL (≈ 383 µM)
Structure (SMILES): CCCN(C)C(=O)n1c(=O)n(Cc2ccc(F)cc2)c2nc(S(=N)(=O)CC)nc(N)c21 (centres unmarked) [Example 45, 6-amino-2-(ethylsulfonimidoyl)-9-[(4-fluorophenyl)methyl]-N-methyl-8-oxo-N-propyl-purine-7-carboxamide]

- AUC(0-t) [1]: 0.095 µM·h
- Cmax [1]: 11.5 nM
- concentration at 0.25 h ([1]; 0.25 h): 8.89 nM
- concentration at 0.5 h ([1]; 0.5 h): 9.99 nM
- concentration at 1 h ([1]; 1 h): 10.2 nM
- concentration at 2 h ([1]; 2 h): 8.4 nM
- concentration at 4 h ([1]; 4 h): 11.5 nM
- concentration at 8 h ([1]; 8 h): 8.17 nM
Structure (SMILES): CCS(=O)(=O)c1nc(N)c2[nH]c(=O)n(Cc3ccc(C)cc3)c2n1 [Example S-3, reference compound]
